Experimental data from paper PMC11236204 (PLOS Pathogens, 2024).
Values joined by “and” are separate entries in the source; they are usually repeats but may differ in a detail not shown here. Identical values can stand only once. Like-named read-outs stand apart in the source and are kept apart here. Peptide text beside a SMILES is read from it. * marks the point of attachment. X1 = CCCCCCCCCCCCCCCC(=O)OCC(C*)OC(=O)CCCCCCCCCCCCCCC; Palmitoyl = CCCCCCCCCCCCCCCC(=O)*

Assays:
RVFV MP-12 [1] = type: cell-based, Rift Valley fever virus; set-up: relative RVFV infection in neurons treated with TLR2 ligands, Rep 1 / relative RVFV infection in neurons treated with TLR2 ligands, Rep 2: unit not given here
RVFV-DiD = type: cell-based, Rift Valley fever virus; settings: 1h
RVFV MP-12 [2] = type: cell-based, Rift Valley fever virus; settings: 24h
RVFV MP-12 [3] = type: cell-based, Rift Valley fever virus
RVFV ZH501 [4] = system: RVFV ZH501; set-up: species or system mouse (C57BL/6); settings: mouse, in vivo
RVFV MP-12 [5] = system: RVFV MP-12
[6] = system: VSV-RVFV (recombinant VSV expressing RVFV glycoproteins Gn and Gc); type: cell-based, vesicular stomatitis virus / RVFV ZH501 glycoproteins; settings: 14h
RVFV MP-12 [7] = type: cell-based, Rift Valley fever virus; settings: 10μg/mL
RVFV ZH501 [8] = system: RVFV ZH501; set-up: species or system mouse (C57BL/6); settings: mouse, in vivo; remark: listed apart in the source
RVFV MP-12 [9] = type: cell-based, Rift Valley fever virus; settings: for RVFV RNA after lipopeptide pretreatment: 10μg/mL for 4h
VSV-GFP [10] = settings: 2 h
RVFV MP-12 [11] = type: cell-based, Rift Valley fever virus; remark: listed apart in the source
RVFV MP-12 [12] = type: cell-based, Rift Valley fever virus; remark: listed apart in the source
RVFV ZH501 [13] = settings: mouse, in vivo
RVFV MP-12 [14] = type: cell-based, Rift Valley fever virus; settings: 10μg/mL; remark: listed apart in the source
RVFV ZH501 [15] = system: RVFV ZH501; set-up: species or system mouse (C57BL/6); settings: mouse, in vivo; remark: listed apart in the source
[16] = system: VSV-RVFV (recombinant VSV expressing RVFV glycoproteins Gn and Gc); type: cell-based, vesicular stomatitis virus / RVFV ZH501 glycoproteins
VSV-GFP [17] = type: cell-based, vesicular stomatitis virus
RVFV MP-12 [18] = type: cell-based, Rift Valley fever virus; settings: 10μg/mL for 4h; 15h
RVFV MP-12 [19] = type: cell-based, Rift Valley fever virus; remark: listed apart in the source
RVFV ZH501 [20] = system: RVFV ZH501; set-up: species or system mouse (C57BL/6); settings: mouse, in vivo; remark: listed apart in the source
[21] = system: Ifit2, Cxcl10, Tnfa, Cxcl1 RNA; type: cell-based, rat
La Crosse virus (LACV) = type: cell-based

In the case of FSL-1, the “relative RVFV infection in neurons treated with TLR2 ligands, Rep 1” value (from here on “relative RVFV infection … Rep 1”) (RVFV MP-12 [1]) is reported as 105.077 and the “relative RVFV infection in neurons treated with TLR2 ligands, Rep 2” value (“relative RVFV infection … Rep 2” below) (RVFV MP-12 [1]) is reported as 120.652.

`CCNCc1nc2c(N)nc3ccccc3c2n1CC(C)(C)O` [Gardiquimod] was tested, and the “neurotoxicity in screen (relative survival of neurons)” value (rat cortical neurons) was “neurotoxic”.

`CO/C1=C\C(C)=C\[C@@H](C)[C@@H](O)[C@@H](C)C/C(C)=C/C=C/[C@H](OC)[C@@H]([C@@H](C)[C@@H](O)[C@H](C)[C@@]2(O)C[C@@H](O)[C@H](C)[C@@H](C(C)C)O2)OC1=O` [BafA, bafilomycin A1] was tested, and the “number, intensity, and area of DiD puncta” value (RVFV-DiD) was “decreased”, the “RVFV infection after pulse at pH 7.6” value (RVFV MP-12 [2]) was “blocked infection” and the “RVFV infection in acid-washed cells (pH 5.2)” value (RVFV MP-12 [2]) was “did not block infection”.

With `CC(C)Cn1cnc2c(N)nc3ccccc3c21` [Imiquimod] the “neurotoxicity in screen (relative survival of neurons)” value (rat cortical neurons) was “neurotoxic”.

`CCCCCCCCCCCCCCCC(=O)N[C@@H](CSCC(COC(=O)CCCCCCCCCCCCCCC)OC(=O)CCCCCCCCCCCCCCC)C(=O)N[C@@H](CO)C(=O)N[C@@H](CCCCN)C(=O)N[C@@H](CCCCN)C(=O)N[C@@H](CCCCN)C(=O)N[C@@H](CCCCN)C(=O)O` (some centres unmarked) [Pam3CSK4] (Palmitoyl-C(X1)SKKKK-OH) was tested, and the “internalized RVFV RNA” value (RVFV MP-12 [3]) was “no difference”, the “RVFV titers in the liver” value (RVFV ZH501 [4]) was “significantly decreased” and the “Mouse cortical neurons Rel. infection” value (RVFV MP-12 [5]; 0.016 ug/mL) was 0.9744 and 0.948 and 1.028. For the same compound, the “Mouse cortical neurons Rel. infection” value (RVFV MP-12 [5]; 0.08 ug/mL) was 1.018 and 0.9269 and 0.9842, the “Mouse cortical neurons Rel. infection” value (RVFV MP-12 [5]; 0.4 ug/mL) was 1.0033 and 0.9456 and 0.9907 and the “Mouse cortical neurons Rel. infection” value (RVFV MP-12 [5]; 2 ug/mL) was 1.058 and 0.9085 and 1.0272. For the same compound, the “Mouse cortical neurons Rel. infection” value (RVFV MP-12 [5]; 10 ug/mL) was 0.3619 and 0.3566 and 0.3035, the VSV-RVFV replication [6] was “decreased VSV-RVFV replication” and the “viral RNA bound to cells” value (RVFV MP-12 [7]) was “did not change”. The “Neurologic disease at 3dpi? No (number of mice)” value (RVFV ZH501 [8]) was 2 and 3, the “Neurologic disease at 3dpi? Yes (number of mice)” value (RVFV ZH501 [8]) was 0 and the “mice with signs of severe (neurologic) disease” value (RVFV ZH501 [8]) was “zero out of three and 0/3”. For the same compound, the “RVFV RNA after lipopeptide pretreatment” value (RVFV MP-12 [9]) was “decreased RVFV RNA”, the “RVFV RNA levels in the presence of TPCA-1 or IKK 16” value (RVFV MP-12 [9]; 10μg/mL, 24h) was “significantly decreased” and the “number, intensity, and area of DiD puncta” value (RVFV-DiD) was “decreased”. For the same compound, the “IC50 against VSV” value (VSV-GFP [10]) was > 10 mg/L, the “internalized RVFV RNA” value (RVFV MP-12 [11]) was “no difference” and the “Rep 1 rel infection” value (RVFV MP-12 [12]) was 1.242 and 0.7928. The “Rep 2 rel infection” value (RVFV MP-12 [12]) was 1.2338 and 0.6802, the “infection relative to vehicle in screen” value (RVFV MP-12 [1]) was “below 60 % of vehicle” and the “relative RVFV infection … Rep 1” value (RVFV MP-12 [1]) was 26.2716. For the same compound, the “relative RVFV infection … Rep 2” value (RVFV MP-12 [1]) was 51.9474, the “survival of mice treated with Pam3CSK4 alone” value (RVFV ZH501 [13]) was “all mice treated with Pam3CSK4 alone survived” and the “viral RNA bound to cells” value (RVFV MP-12 [14]) was “did not change”. The “decrease of viral replication in the brain” value (RVFV ZH501 [15]) was “more than 5 logs”, the VSV-RVFV replication [16] was “decreased VSV-RVFV replication” and the “VSV RNA replication” value (VSV-GFP [17]) was “unchanged”. The RVFV titers (RVFV MP-12 [18]) was 3.7 x 10^4 PFU / mL and 3.2 x 10^4 PFU / mL, the “Neutralization (relative RVFV infection)” value (RVFV MP-12 [19]) was 1.27 and 1.194 and 1.159 and 1.08 and the “RVFV infection, neutralization condition” value (RVFV MP-12 [19]; 24 hours) was “failed to neutralize RVFV”. The “RVFV nucleoprotein immunofluorescence in brain and liver” value (RVFV ZH501 [20]) was “decreased viral replication in the brain and liver”, the “hemorrhages caused by RVFV in the liver (H & E)” value (RVFV ZH501 [20]) was “reduced hemorrhages” and the “RVFV infection in DMSO treated cells” value (RVFV MP-12 [2]; 10μg/mL) was “inhibited RVFV infection”. For the same compound, the “RVFV infection in acid-washed, BafA-treated cells” value (RVFV MP-12 [2]; 10μg/mL, pH 5.2) was “decreased RVFV infection”.

IKK 16 was tested, and the “transcription of NF-κB target genes Tnfa and Cxcl1 after Pam3CSK4 stimulation” value [21] was “blunted transcription”.

For `NC(=O)Nc1sc(-c2ccc(F)cc2)cc1C(N)=O` [TPCA-1, 2-[(aminocarbonyl)amino]-5-(4-fluorophenyl)-3-thiophenecarboxamide], the “transcription of NF-κB target genes Tnfa and Cxcl1 after Pam3CSK4 stimulation” value [21] was “blunted transcription”.

Pam2CSK4 was tested, and the “Rel. Fold change Cxcl1 RNA” value [21] was 1030.97 and 740.202, the “Rel. Fold change Tnfa RNA” value [21] was 157.572 and 100.256 and the “inflammatory gene transcription (Tnfa, Cxcl1, Cxcl10)” value ([21]; 10μg/mL for 4h) was “induced inflammatory gene transcription”. For the same compound, the “Rel. Fold change RVFV RNA” value (RVFV MP-12 [9]) was 0.741 and 1.189, the “RVFV RNA after lipopeptide pretreatment” value (RVFV MP-12 [9]) was “no antiviral effect” and the “RVFV infection in neurons in screen” value (RVFV MP-12 [1]) was “did not decrease RVFV infection”. For the same compound, the “Rep 1 rel infection” value (RVFV MP-12 [1]) was 1.076 and 1.061, the “relative RVFV infection … Rep 1” value (RVFV MP-12 [1]) was 106.055 and the “relative RVFV infection … Rep 2” value (RVFV MP-12 [1]) was 122.343. The “Rel. VSV-RVFV RNA” value [16] was 0.4225 and 0.2236 and 0.215, the VSV-RVFV replication [16] was “also reduced VSV-RVFV infection, although it was significantly weaker than Pam3CSK4” and the “VSV RNA replication” value (VSV-GFP [17]) was “no antiviral effect”. The “Rel. LACV RNA” value (La Crosse virus (LACV)) was 0.9766 and 0.5238 and 0.6648 and 0.9475 and the “antiviral effect on LACV (qPCR and microscopy)” value (La Crosse virus (LACV)) was “no antiviral effect”.

For 2'3'-c-di-AMP, the “Rep 1 rel infection” value (RVFV MP-12 [1]) was 1.031 and 1.083 and the “Rep 2 rel infection” value (RVFV MP-12 [1]) was 1.123 and 1.1792.
